According to patent US8193369B2, “Benzimidazole cannabinoid agonists” (Janssen Pharmaceutica NV, priority 2007, dated 2012):

Tests used:
[1] = CB1 related side-effects: body temperature lowering, LAD; assay type: in vivo
Experimental: CB1 related undesired side-effects such as lowering of body temperature, flat body posture, and mydriasis were measured for a number of compounds of the present invention and a number of compounds covered by reference WO-2006/048754.

[2] = target: T1, human CB2 (hCB2) receptor (Homo sapiens, UniProt P34972); experiment: Inhibition of forskolin-activated cAMP production upon activation of human CB2 receptor (HTRF); assay type: cell-based; details: CHO-K1 cells stably transfected with hCB2; 15 μM forskolin; pEC50=-log(EC50); relative to WIN55212-2
T1 construct: expressed in transfected cells; host or cells: CHO-K1
T1 sequence (P34972 whole entry): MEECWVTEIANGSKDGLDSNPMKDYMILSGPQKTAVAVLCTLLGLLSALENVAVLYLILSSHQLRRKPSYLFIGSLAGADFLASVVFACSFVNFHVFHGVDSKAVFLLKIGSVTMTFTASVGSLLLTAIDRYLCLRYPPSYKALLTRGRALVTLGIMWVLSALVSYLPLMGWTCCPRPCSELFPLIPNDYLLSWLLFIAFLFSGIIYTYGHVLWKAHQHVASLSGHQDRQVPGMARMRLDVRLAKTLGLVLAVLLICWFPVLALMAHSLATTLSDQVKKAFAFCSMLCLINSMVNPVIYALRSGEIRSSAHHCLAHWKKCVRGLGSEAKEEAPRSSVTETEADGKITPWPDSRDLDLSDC
Experimental: D. Pharmacological Examples D.1 Inhibition of cAMP in Response to Activation of the Human CB2 Receptors
Functional activity of the test compounds was assessed by measuring their potency to inhibit forskolin-activated cAMP production upon activation of human CB2 (hCB2) receptor through homogenous time resolved fluorescence (HTRF) assays.
CHO-K1 cells stably transfected with hCB2 were grown up to 80-90% confluence in T175 Falcon flasks in DMEM/NUT MIX F-12 culture medium complemented with 2% Solution A (5.10^6 IU/l penicillin G, 5 g/l streptomycin sulphate, 5.5 g/l pyruvate, 14.6 g/l L-glutamine, 1M NaOH) and 10% foetal calf serum. Before the experiments, medium was removed, cells were washed with PBS/EDTA (140 mM NaCl, 1 mM Na2-EDTA, 8 mM Na2HPO4.2H2O, 8.5 mM KH2PO4, 2.7 mM KCl, 21 mM glucose), resuspended in stimulation buffer (HBSS 1×, IBMX 1 mM, Hepes 5 mM, MgCl2 10 mM, BSA 0.1%, pH 7.4). Cells were diluted to a concentration of 10^6 cells/ml for hCB2 experiments. Assays were performed using the cAMP Dynamic HTRF kit (CIS bio international, France) according to the recommendations of the manufacturer.
For CB2, each well of a 384 flat bottom black polystyrene assay plate (Costar) was filled with 10 μl stimulation buffer containing 15 μM forskolin and either test compound (in 3% DMSO), 3% DMSO or 10 μM Win55212-2 (in 3% DMSO). Then, 20 μl of the diluted hCB2-CHO-K1 cells was added (20,000 cells/well). After 30 minutes incubation in dark at room temperature, 10 μl cAMP-XL665 and 10 μl anti-cAMP cryptate (both at a final dilution of 1/100) was added to the cells.
After equilibration of the reaction mixtures for 1 to 24 hours in dark at room temperature, fluorescence was measured at 665 nm and 620 nm using a Discovery microplate fluorescence counter (Perkin Elmer), and the signal ratio of 665 nm/620 nm was calculated. The signal ratios of the test compounds were expressed relative to the signal ratios of the DMSO control (maximal signal ratio, no inhibition of cAMP) and WIN55212-2 for hCB2, respectively (minimal signal ratio, maximal inhibition of cAMP). From the dose response curves generated for each test compound, the dose at which 50% of the maximal inhibition of cAMP level is observed (EC50, expressed in the Table as pEC50=−log (EC50) values) and the level of inhibition reached with 10 μM of the test compound compared to WIN55212-2 (for hCB2) was calculated.

With CCS(=O)(=O)c1ccc2c(c1)nc(C(C)(C)C)n2CC1CCN(C(C)=O)CC1 [Co. No. 1] the “LAD (Lowest Acceptable Dose) at which lowering of body temperature was observed in more than half of the treated animals” value [1] was >40 mg/kg.
In the case of CC(=O)N1CCC(Cn2c(C(C)(C)C)nc3cc(S(=O)(=O)CCCC(F)(F)F)ccc32)CC1 [Co. No. 3], the “LAD (Lowest Acceptable Dose) at which lowering of body temperature was observed in more than half of the treated animals” value [1] is reported as >40 mg/kg.
For CCS(=O)(=O)c1ccc2c(c1)nc(C(C)(C)C)n2CC1CCN(C=O)CC1 [Co. No. 28], the “LAD (Lowest Acceptable Dose) at which lowering of body temperature was observed in more than half of the treated animals” value [1] was >40 mg/kg.
With CCS(=O)(=O)c1ccc2c(c1)nc(C(C)(C)C)n2CC1CCS(=O)(=O)CC1 [Co. No. 29] the “LAD (Lowest Acceptable Dose) at which lowering of body temperature was observed in more than half of the treated animals” value [1] was >40 mg/kg.
With CC(=O)N1CCC(Cn2c(C(C)(C)C)nc3cc(S(=O)(=O)c4ccncc4)ccc32)CC1 [Co. No. 34] the “LAD (Lowest Acceptable Dose) at which lowering of body temperature was observed in more than half of the treated animals” value [1] was >40 mg/kg.
For CC(=O)N1CCC(Cn2c(C(C)(C)C)nc3cc(S(=O)(=O)C4CCCC4)ccc32)CC1 [Co. No. 35], the “LAD (Lowest Acceptable Dose) at which lowering of body temperature was observed in more than half of the treated animals” value [1] was >40 mg/kg.
In the case of CC(C)(C)c1nc2cc(S(=O)(=O)CCCC(F)(F)F)ccc2n1CC1CCN(C=O)CC1 [compound 5], the “CB2 pEC50” value [2] is reported as 8.62 and the melting point is reported as > 100 °C.
In the case of CCC(=O)N1CCC(Cn2c(C(C)(C)C)nc3cc(S(=O)(=O)CCCC(F)(F)F)ccc32)CC1.Cl [compound 6], the “CB2 pEC50” value [2] is reported as 7.72 and the melting point is reported as > 100 °C.
In the case of COC(=O)N1CCC(Cn2c(C(C)(C)C)nc3cc(S(=O)(=O)CCCC(F)(F)F)ccc32)CC1.Cl [compound 7], the “CB2 pEC50” value [2] is reported as 7.77 and the melting point is reported as > 100 °C.
With CC(C)(C)c1nc2cc(S(=O)(=O)CCCC(F)(F)F)ccc2n1CC1CCN(C(=O)C(F)(F)F)CC1.Cl [compound 8] the “CB2 pEC50” value [2] was 7.64 and the melting point was > 100 °C.
For COCC(=O)N1CCC(Cn2c(C(C)(C)C)nc3cc(S(=O)(=O)CCCC(F)(F)F)ccc32)CC1 [compound 9], the “CB2 pEC50” value [2] was 5.80 and the melting point was > 100 °C.
CC(=O)N1CCC(Cn2c(C(C)(C)C)nc3cc(S(=O)(=O)CC4CC4)ccc32)CC1 [compound 24] showed an EC50 [2] of 9.33 nM and a melting point of 150 °C.
With CC(=O)N1CCC(Cn2c(C(C)(C)C)nc3cc(S(=O)(=O)Cc4ccc(F)cc4)ccc32)CC1 [compound 25] the EC50 [2] was 12.3 nM and the melting point was > 100 °C.
In the case of CC(C)(C)c1nc2cc(S(=O)(=O)CCCO)ccc2n1CC1CCN(C=O)CC1 [compound 26], the EC50 [2] is reported as 8.91 nM and the melting point is reported as > 100 °C.
With COCCS(=O)(=O)c1ccc2c(c1)nc(C(C)(C)C)n2CC1CCN(C=O)CC1 [compound 27] the EC50 [2] was 61.7 nM and the melting point was > 100 °C.
For CCS(=O)(=O)c1ccc2c(c1)nc(C(C)(C)C)n2CC1CCN(C=O)CC1 [compound 28], the EC50 [2] was 23.4 nM and the melting point was 188 to 190 °C.
Work on CCS(=O)(=O)c1ccc2c(c1)nc(C(C)(C)C)n2CC1CCS(=O)(=O)CC1 [compound 29] yielded an EC50 [2] of 27.5 nM and a melting point of 194 °C.
In the case of CC(C)(C)c1nc2cc(S(=O)(=O)CC3CC3)ccc2n1CC1CCS(=O)(=O)CC1 [compound 31], the EC50 [2] is reported as 8.51 nM and the melting point is reported as 234 °C.
CC(=O)N1CCC(Cn2c(C(C)(C)C)nc3cc(S(=O)(=O)c4ccncc4)ccc32)CC1 [compound 34] showed an EC50 [2] of 3.89 nM and a melting point of 179 °C.
With CC(C)(C)c1nc2cc(S(=O)(=O)CC3CC3)ccc2n1CC1CCN(C=O)CC1 [compound 36] the “CB2 pEC50” value [2] was 8.66 and the melting point was 186 °C.
With CC(=O)N1CCC(Cn2c(C(C)(C)C)nc3cc(S(=O)(=O)c4nccs4)ccc32)CC1 [compound 40] the EC50 [2] was 5.89 nM and the melting point was 191 °C.
With CC(=O)N1CCC(Cn2c(C(C)(C)C)nc3cc(S(=O)(=O)CC4CCC4)ccc32)CC1 [compound 43] the EC50 [2] was 8.71 nM and the melting point was 155 °C.
CCS(=O)(=O)c1ccc2c(c1)nc(CC(C)(C)C)n2CC1CCN(C(C)=O)CC1 [compound 46] showed an EC50 [2] of 53.7 nM and a melting point of 152 to 155 °C.
For CCS(=O)(=O)c1ccc2c(c1)nc(CC(C)(C)C)n2CC1CCN(C=O)CC1 [compound 48], the EC50 [2] was 69.2 nM and the melting point was 166 to 168 °C.
With CC(C)(C)c1nc2cc(S(=O)(=O)c3nccs3)ccc2n1CC1CCN(C=O)CC1 [compound 49] the EC50 [2] was 7.41 nM and the melting point was 190 °C.
In the case of CC(=O)N1CCC(Cn2c(C(C)(C)C)nc3cc(S(=O)(=O)c4ccccn4)ccc32)CC1 [compound 53], the EC50 [2] is reported as 2.95 nM and the melting point is reported as 205 °C.
In the case of CC(=O)N1CCC(Cn2c(C(C)(C)C)nc3cc(S(=O)(=O)c4ccc(F)cc4)ccc32)CC1 [compound 59], the EC50 [2] is reported as 2.75 nM and the melting point is reported as 186 °C.
Compound CC(=O)N1CCC(Cn2c(C(C)(C)C)nc3cc(S(=O)(=O)c4c(Cl)cccc4Cl)ccc32)CC1 [compound 60] has an EC50 [2] of 3.47 nM and a melting point of 224 °C.
With CCCC(CCC)S(=O)(=O)c1ccc2c(c1)nc(C(C)(C)C)n2CC1CCN(C(C)=O)CC1 [compound 67] the EC50 [2] was 2.75 nM and the melting point was 132 °C.
For CC(=O)N1CCC(Cn2c(C(C)(C)C)nc3cc(S(=O)(=O)c4cccs4)ccc32)CC1 [compound 68], the EC50 [2] was 2.95 nM and the melting point was 187 °C.
CC(=O)N1CCC(Cn2c(C(C)(C)C)nc3cc(S(=O)(=O)c4ccccc4Cl)ccc32)CC1 [compound 71] gave an EC50 [2] of 7.41 nM and a melting point of 218 °C.
COc1cccc(S(=O)(=O)c2ccc3c(c2)nc(C(C)(C)C)n3CC2CCN(C(C)=O)CC2)c1 [compound 82] gave an EC50 [2] of 2.19 nM and a melting point of 164 °C.
With CC(=O)N1CCC(Cn2c(C(C)(C)C)nc3cc(S(=O)(=O)c4cccc(C#N)c4)ccc32)CC1 [compound 84] the EC50 [2] was 3.31 nM and the melting point was 191 °C.
In the case of CC(=O)N1CCC(Cn2c(C(C)(C)C)nc3cc(S(=O)(=O)c4ccc(C(F)(F)F)cc4)ccc32)CC1 [compound 88], the EC50 [2] is reported as 0.537 nM and the melting point is reported as 189 °C.
With CC(=O)N1CCC(Cn2c(C(C)(C)C)nc3cc(S(=O)(=O)c4cccc(Cl)c4)ccc32)CC1 [compound 90] the EC50 [2] was 0.741 nM and the melting point was 192 °C.
Compound COc1cccc(S(=O)(=O)c2ccc3c(c2)nc(C(C)(C)C)n3CC2CCN(C(C)=O)CC2)c1OC [compound 108] has an EC50 [2] of ~13.8 nM.
COc1ccccc1S(=O)(=O)c1ccc2c(c1)nc(C(C)(C)C)n2CC1CCN(C(C)=O)CC1 [compound 109] showed an EC50 [2] of ~8.71 nM.
For CC(=O)N1CCC(Cn2c(C(C)(C)C)nc3cc(S(=O)(=O)c4ccc(N)c(Cl)c4)ccc32)CC1 [compound 110], the EC50 [2] was ~10 nM.
CC(=O)N1CCC(Cn2c(C(C)(C)C)nc3cc(S(=O)(=O)c4c(F)cccc4F)ccc32)CC1 [compound 111] showed an EC50 [2] of ~16.6 nM.
In the case of CC(=O)N1CCC(Cn2c(C(C)(C)C)nc3cc(S(=O)(=O)c4cccc(C#N)c4C)ccc32)CC1 [compound 112], the EC50 [2] is reported as ~16.6 nM.
CC(=O)N1CCC(Cn2c(C(C)(C)C)nc3cc(S(=O)(=O)c4ccccc4C(F)(F)F)ccc32)CC1 [compound 113] gave an EC50 [2] of ~2.51 nM.
Work on CC(=O)N1CCC(Cn2c(C(C)(C)C)nc3cc(S(=O)(=O)c4c(F)cc(F)cc4F)ccc32)CC1 [compound 114] yielded an EC50 [2] of ~4.17 nM.
In the case of CC(=O)N1CCC(Cn2c(C(C)(C)C)nc3cc(S(=O)(=O)c4c(C)cccc4C)ccc32)CC1 [compound 115], the EC50 [2] is reported as ~8.32 nM.
CC(=O)N1CCC(Cn2c(C(C)(C)C)nc3cc(S(=O)(=O)c4cccc(N5CCOCC5)c4)ccc32)CC1 [compound 116] gave an EC50 [2] of ~44.7 nM.
